According to the NIST ThermoML archive (doi:10.1021/je900400v):
± gives the expanded uncertainty stated by the source.

Conditions: Liquid, Closed cell (Static) method

With `FC(F)(F)C1(F)OC1(F)F` (centres undefined) [2,2,3-trifluoro-3-(trifluoromethyl)oxirane] the “vapor or sublimation pressure” value (271.88 K) was 302.2 ± 1.5 kPa, the “vapor or sublimation pressure” value (295.53 K) was 649.9 ± 2.1 kPa and the “vapor or sublimation pressure” value (300.47 K) was 745.6 ± 2.2 kPa. The “vapor or sublimation pressure” value (303.11 K) was 798.5 ± 2.3 kPa, the “vapor or sublimation pressure” value (306.5 K) was 874.7 ± 2.5 kPa and the “vapor or sublimation pressure” value (310.48 K) was 970.1 ± 2.7 kPa. The “vapor or sublimation pressure” value (312.64 K) was 1024.9 ± 2.9 kPa and the “vapor or sublimation pressure” value (318.16 K) was 1175.3 ± 3.1 kPa.
In the case of `FC(F)=C(F)C(F)(F)F` [hexafluoropropene], the “vapor or sublimation pressure” value (272.33 K) is reported as 327.1 ± 1.4 kPa, the “vapor or sublimation pressure” value (279.64 K) is reported as 420.7 ± 1.7 kPa and the “vapor or sublimation pressure” value (299.34 K) is reported as 763.3 ± 2.2 kPa. The “vapor or sublimation pressure” value (302.24 K) was 825.7 ± 2.4 kPa, the “vapor or sublimation pressure” value (312.33 K) was 1077.3 ± 2.8 kPa and the “vapor or sublimation pressure” value (317.63 K) was 1232.1 ± 3.1 kPa.
